Data taken from patent publication US7384656B2, “Anti-allergy composition and related method” (Access Business Group International LLC, priority 2004, dated 2008).

Tests used:
[1] = tested on: LTC4 release, RBL-2H3 cells; assay: LTC4 release from IgE-sensitized, DNP-BSA stimulated RBL-2H3 cells (ELISA); type: cell-based; conditions: 1 μg/ml
Description: The methodology used to obtain the results of FIG. 9 will now be described. First, RBL-2H3 cells, available from ATCC (American Type Culture Collection) of Manassas, Va., were plated in 24 well plates at 5×10^4/well. Following adherence, the cells were exposed to the ingredients or combination of ingredients noted in FIG. 9, also referred to as samples. The samples were used at the concentrations noted in Table VI. Stock solutions of all samples were prepared in a solution of DMSO, ethanol, and water present in a ratio of 5:3:2 at 100 mg/ml. Each sample was then diluted in media to the final concentration. The cells were then incubated overnight with the samples. The following day a mouse anti-dinitrophenyl (DNP) IgE antibody, available from Sigma of St. Louis, Mo., was added to the cells at a final concentration of 1 ng/ml. The cells were incubated for 1.5 hr at 37° C. to allow binding of the IgE molecule to the cellular IgE receptor via the constant region of the antibody. Following this incubation period, the cells were washed twice. A solution containing DNP conjugated to BSA (DNP-BSA), available from Calbiochem of San Diego, Calif., was added to the cells at 0.5 ng/ml. […] Next, the measured OD450 data from the ELISA was inputted into a calibration graph to determine the amount by which histamine was reduced relative to an untreated control sample. […]

[2] = tested on: histamine release, RBL-2H3 cells; assay: Histamine release from IgE-sensitized, DNP-BSA stimulated RBL-2H3 cells (ELISA); type: cell-based; conditions: for Percent Control of Histamine Release (Table VII): 10 ng/ml, in combinations each part at 10 ng/ml; for Percent Control, Histamine Release (Table VIII): 1 μg/ml
Description: The methodology used to obtain the results of FIG. 9 will now be described. First, RBL-2H3 cells, available from ATCC (American Type Culture Collection) of Manassas, Va., were plated in 24 well plates at 5×10^4/well. Following adherence, the cells were exposed to the ingredients or combination of ingredients noted in FIG. 9, also referred to as samples. The samples were used at the concentrations noted in Table VI. Stock solutions of all samples were prepared in a solution of DMSO, ethanol, and water present in a ratio of 5:3:2 at 100 mg/ml. Each sample was then diluted in media to the final concentration. The cells were then incubated overnight with the samples. The following day a mouse anti-dinitrophenyl (DNP) IgE antibody, available from Sigma of St. Louis, Mo., was added to the cells at a final concentration of 1 ng/ml. The cells were incubated for 1.5 hr at 37° C. to allow binding of the IgE molecule to the cellular IgE receptor via the constant region of the antibody. Following this incubation period, the cells were washed twice. A solution containing DNP conjugated to BSA (DNP-BSA), available from Calbiochem of San Diego, Calif., was added to the cells at 0.5 ng/ml. The cells were incubated an additional 1 hr at 37° C. The supernatants were assayed for the presence of histamine, PGD2 and/or LTC4 using ELISA kits commercially available from Cayman Chemical of Ann Arbor, Mich. according to the manufacturer's specifications. Next, the measured OD450 data from the ELISA was inputted into a calibration graph to determine the amount by which histamine was reduced relative to an untreated control sample. An example of a histamine calibration graph is illustrated in FIG. 10. Suffice it to say that calibration graphs for PGD2 and LTC4 are similar. The calibration graph in FIG. 10 was generated by measuring the OD450 of multiple, known concentrations of purified histamine. As shown in the graph, the X-axis indicates the concentrations of the histamine in nanomolar; and the Y-axis indicates the OD450 derived from each of the concentrations. The line 120 connects the data points, while line 130 is a trend line corresponding to the equation in this particular embodiment of: Y=−0.0025X^2+0.2915X+2.0775 Equation 2 With the histamine calibration graph, the amount of histamine for each sample was determined, and the subsequent data was input into Table VI and FIG. 9 for comparative analysis.

O=c1cc(-c2ccc(O)c(O)c2)oc2cc(O)cc(O)c12 [Luteolin]
Percent Control LTC4 Release (Table VI) [1]: 157% | Percent Control of Histamine Release (Table VII) [2]: 88.1% | Percent Control of Histamine Release (Table VII) ([2]; listed as luteolin): about 88% | Percent Control of Histamine Release (Table VII) ([2]; listed as luteolin from Perilla leaf): about 88% | Percent Control of Histamine Release (Table VI) ([2]; 100 ng/ml): 10% | Percent Control, Histamine Release (Table VIII) [2]: about 100% | Percent Control, Histamine Release (Table VIII) ([2]; listed as Luteolin from Perilla seed): 99.9%
